Here are results for 17 molecules from US20240025887A1, “THIENYL AND CYCLOALKYL AMINOPYRIMIDINE COMPOUNDS AS INHIBITORS OF NUAK KINASES, COMPOSITIONS AND USES THEREOF” (Ontario Institute for Cancer Research (OICR), priority 2021, published 2024).

SMILES strings stand for the structures. Where only a bound is given, the exact number is not on record here.

Holding throughout (assay type): biochemical
The target of one test is T1, NUAK2 (h) (Homo sapiens, UniProt Q9H093).
T1 construct: This assay was done radiometrically using full-length, recombinant enzyme; purchased Eurofins
T1 sequence (Q9H093 1-628): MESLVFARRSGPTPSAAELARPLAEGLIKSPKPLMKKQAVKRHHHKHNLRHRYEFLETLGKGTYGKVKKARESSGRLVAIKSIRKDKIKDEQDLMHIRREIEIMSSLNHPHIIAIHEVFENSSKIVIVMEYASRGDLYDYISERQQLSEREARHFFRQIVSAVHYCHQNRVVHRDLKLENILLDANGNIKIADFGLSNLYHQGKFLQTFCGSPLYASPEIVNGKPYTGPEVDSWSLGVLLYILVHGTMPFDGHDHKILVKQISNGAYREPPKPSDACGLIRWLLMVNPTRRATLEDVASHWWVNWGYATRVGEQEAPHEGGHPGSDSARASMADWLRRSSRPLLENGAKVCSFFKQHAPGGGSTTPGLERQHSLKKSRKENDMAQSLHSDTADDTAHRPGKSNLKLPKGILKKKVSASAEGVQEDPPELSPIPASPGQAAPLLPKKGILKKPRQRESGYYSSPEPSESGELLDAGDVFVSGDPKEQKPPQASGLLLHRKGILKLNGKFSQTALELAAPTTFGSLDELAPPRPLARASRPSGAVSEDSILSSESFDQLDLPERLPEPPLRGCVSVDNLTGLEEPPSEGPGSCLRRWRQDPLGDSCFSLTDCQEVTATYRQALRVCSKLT
The test can be described thus: NUAK2 enzymatic assay (radiometric, Eurofins). The conditions noted are these: for IC50: radiometric, full-length recombinant enzyme; for AUR-A (IC50, nM)/NUAK2 (IC50, nM): NUAK2 selectivity over Aurora-A, ratio of IC50s. An outline of the steps:
(§1)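 Radiometric assay with full-length recombinant NUAK2 in 8 mM MOPS pH 7.0, 0.2 mM EDTA, 10 mM magnesium acetate, 300 μM peptide substrate and [33P]-ATP, 40 min at room temperature. Phosphoric acid stop, filter capture, scintillation counting. Aurora A and NUAK1 used as counter screens.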

A further test has as its target T2, Aurora A (Homo sapiens, UniProt O14965).
T2 sequence (O14965 1-403): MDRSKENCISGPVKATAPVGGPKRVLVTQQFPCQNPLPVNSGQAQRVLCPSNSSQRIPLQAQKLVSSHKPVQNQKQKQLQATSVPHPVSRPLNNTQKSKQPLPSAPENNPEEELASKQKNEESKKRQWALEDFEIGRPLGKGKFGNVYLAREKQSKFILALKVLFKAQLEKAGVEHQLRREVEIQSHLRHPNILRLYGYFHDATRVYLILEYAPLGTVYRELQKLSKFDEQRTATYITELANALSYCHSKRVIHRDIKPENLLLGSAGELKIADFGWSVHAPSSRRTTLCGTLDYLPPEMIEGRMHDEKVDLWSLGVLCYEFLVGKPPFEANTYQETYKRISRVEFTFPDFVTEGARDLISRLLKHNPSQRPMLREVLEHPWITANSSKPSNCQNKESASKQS
The test can be described thus: Aurora A counter screen. The conditions noted are these: read-out: AUR-A (IC50). An outline of the steps:
as §1

A further test concerns the target T3, NUAK1 (Homo sapiens, UniProt O60285).
T3 sequence (O60285 1-661): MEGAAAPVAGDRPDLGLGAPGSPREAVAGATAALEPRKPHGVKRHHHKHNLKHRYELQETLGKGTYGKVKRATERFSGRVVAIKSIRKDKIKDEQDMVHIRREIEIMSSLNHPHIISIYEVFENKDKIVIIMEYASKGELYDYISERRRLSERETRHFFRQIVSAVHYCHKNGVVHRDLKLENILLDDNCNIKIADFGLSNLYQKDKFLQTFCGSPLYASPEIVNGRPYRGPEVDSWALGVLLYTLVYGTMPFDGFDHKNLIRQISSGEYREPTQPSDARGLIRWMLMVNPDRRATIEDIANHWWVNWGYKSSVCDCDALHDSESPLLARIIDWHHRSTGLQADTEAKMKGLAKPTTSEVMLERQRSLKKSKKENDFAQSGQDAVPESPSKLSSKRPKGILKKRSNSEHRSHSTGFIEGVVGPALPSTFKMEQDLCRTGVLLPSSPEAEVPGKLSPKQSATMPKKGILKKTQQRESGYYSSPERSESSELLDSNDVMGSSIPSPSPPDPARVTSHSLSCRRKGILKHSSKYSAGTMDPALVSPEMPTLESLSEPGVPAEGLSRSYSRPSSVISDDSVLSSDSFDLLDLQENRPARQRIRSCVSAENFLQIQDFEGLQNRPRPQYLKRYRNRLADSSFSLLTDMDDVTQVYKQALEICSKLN
The test can be described thus: NUAK1 counter screen. An outline of the steps:
as §1

`CN(C1CCCCC1)C1CCN(c2ccc(Nc3ncc(Cl)c(Nc4ccsc4C(N)=O)n3)c(OC(F)F)c2)CC1` [Compound I-73, 3-((5-chloro-2-((4-(4-(cyclohexyl(methyl)amino)piperidin-1-yl)-2-(difluoromethoxy)phenyl)amino)pyrimidin-4-yl)amino)thiophene-2-carboxamide]: the 50% inhibitory concentration (IC50) fell in the range of 0.011 to 0.1 µM at NUAK2 (h), 0.101 to 1 µM on Aurora A and 0.011 to 0.1 µM against NUAK1.

Turning to `NC(=O)c1sccc1Nc1nc(Nc2ccc(N3CCC(N4CCCCC4)CC3)cc2OC(F)F)ncc1C(F)(F)F` [Compound I-76], the concentration for half-maximal inhibition (IC50) lay in the range of 0.0001 to 0.01 µM at NUAK2 (h), 0.101 to 1 µM at Aurora A and 0.011 to 0.1 µM against NUAK1.

As for `CN(C)C1CCN(c2ccc(Nc3ncc(Cl)c(Nc4ccsc4C(N)=O)n3)c(OC(F)F)c2)CC1` [Compound I-47, 3-((5-chloro-2-((2-(difluoromethoxy)-4-(4-(dimethylamino)piperidin-1-yl)phenyl)amino)pyrimidin-4-yl)amino)thiophene-2-carboxamide], the results for the IC50 at NUAK2 (h), on Aurora A and against NUAK1 were 0.011 to 0.1 µM, 0.011 to 0.1 µM and 0.0001 to 0.01 µM, respectively.

For `C[C@H]1CN(C2CCN(c3ccc(Nc4ncc(Cl)c(Nc5ccsc5C(N)=O)n4)c(OC(F)F)c3)CC2)CCN1C` [Compound I-65, (S)-3-((5-chloro-2-((2-(difluoromethoxy)-4-(4-(3,4-dimethylpiperazin-1-yl)piperidin-1-yl)phenyl)amino)pyrimidin-4-yl)amino)thiophene-2-carboxamide], the half-maximal inhibitory concentration (IC50) was in the range of 0.011 to 0.1 µM on NUAK2 (h), 0.101 to 1 µM at Aurora A and 0.011 to 0.1 µM against NUAK1.

For `C[C@H]1CN(C2CCN(c3ccc(Nc4ncc(C(F)(F)F)c(Nc5ccsc5C(N)=O)n4)c(OC(F)F)c3)CC2)CCN1C` [Compound I-68, (S)-3-((2-((2-(difluoromethoxy)-4-(4-(3,4-dimethylpiperazin-1-yl)piperidin-1-yl)phenyl)amino)-5-(trifluoromethyl)pyrimidin-4-yl)amino)thiophene-2-carboxamide], the IC50 on NUAK2 (h) is 0.011 to 0.1 µM; on Aurora A, 0.101 to 1 µM; against NUAK1, 0.011 to 0.1 µM.

With `NC(=O)c1sccc1Nc1nc(Nc2ccc(N3CCC(N4CCCCC4)CC3)cc2OC(F)F)ncc1Cl` [Compound I-58, 3-((2-((4-([1,4′-bipiperidin]-1′-yl)-2-(difluoromethoxy)phenyl)amino)-5-chloropyrimidin-4-yl)amino)thiophene-2-carboxamide], the IC50 on NUAK2 (h) lay within 0.0001 to 0.01 µM; at Aurora A, 0.101 to 1 µM; on NUAK1, 0.0001 to 0.01 µM.

Consider `C[C@H]1CN(C)CCN1c1ccc(Nc2ncc(Cl)c(Nc3ccsc3C(N)=O)n2)c(OC(F)F)c1` [Compound I-29, (S)-3-((5-chloro-2-((2-(difluoromethoxy)-4-(2,4-dimethylpiperazin-1-yl)phenyl)amino)pyrimidin-4-yl)amino)thiophene-2-carboxamide], for which the IC50 on NUAK2 (h) was in the range of 0.011 to 0.1 µM; on Aurora A it was 0.101 to 1 µM; against NUAK1, 0.011 to 0.1 µM.

On to `CN1CCN(C2CCN(c3ccc(Nc4ncc(C#N)c(Nc5ccsc5C(N)=O)n4)c(OC(F)F)c3)CC2)CC1` [Compound I-80, 3-((5-cyano-2-((2-(difluoromethoxy)-4-(4-(4-methylpiperazin-1-yl)piperidin-1-yl)phenyl)amino)pyrimidin-4-yl)amino)thiophene-2-carboxamide], for which the IC50 lay in the range of 0.011 to 0.1 µM at NUAK2 (h), 0.101 to 1 µM at Aurora A and 0.011 to 0.1 µM on NUAK1.

`Cc1cnc(Nc2ccc(N3CCN(C(C)C)CC3)cc2OC(F)F)nc1Nc1ccsc1C(N)=O` [Compound I-17, 3-((2-((2-(difluoromethoxy)-4-(4-isopropylpiperazin-1-yl)phenyl)amino)-5-methylpyrimidin-4-yl)amino)thiophene-2-carboxamide]: the half-maximal inhibitory concentration (IC50) at NUAK2 (h) is 0.011 to 0.1 µM; at Aurora A it was 0.101 to 1 µM; against NUAK1 it was 0.011 to 0.1 µM.

As to `CN1CCN(c2ccc(Nc3ncc(Cl)c(Nc4ccsc4C(N)=O)n3)c(C(F)(F)F)c2)CC1` [Compound I-46, 3-((5-chloro-2-((4-(4-methylpiperazin-1-yl)-2-(trifluoromethyl)phenyl)amino)pyrimidin-4-yl)amino)thiophene-2-carboxamide], the results for the half-maximal inhibitory concentration (IC50) on NUAK2 (h), at Aurora A and at NUAK1 were 0.011 to 0.1 µM, over 1 µM and 0.011 to 0.1 µM, respectively.

In the case of `CN1CCN(C2CCN(c3ccc(Nc4ncc(Cl)c(Nc5cscc5C(N)=O)n4)c(OC(F)F)c3)CC2)CC1` [Compound I-51, 4-((5-chloro-2-((2-(difluoromethoxy)-4-(4-(4-methylpiperazin-1-yl)piperidin-1-yl)phenyl)amino)pyrimidin-4-yl)amino)thiophene-3-carboxamide], the figures for the IC50 at NUAK2 (h), at Aurora A and at NUAK1 were 0.0001 to 0.01 µM, 0.011 to 0.1 µM and 0.0001 to 0.01 µM, respectively.

Consider `NC(=O)c1sccc1Nc1nc(Nc2ccc(N3CCN4CCOC[C@H]4C3)cc2OC(F)F)ncc1Cl` [Compound I-45, (R)-3-((5-chloro-2-((2-(difluoromethoxy)-4-(hexahydropyrazino[2,1-c][1,4]oxazin-8(1H)-yl)phenyl)amino)pyrimidin-4-yl)amino)thiophene-2-carboxamide], for which the IC50 fell in the range of 0.011 to 0.1 µM at NUAK2 (h), 0.101 to 1 µM at Aurora A and 0.011 to 0.1 µM on NUAK1.

Turning to `NC(=O)c1ccsc1Nc1nc(Nc2ccc(N3CCCC3)cc2OC(F)F)ncc1Cl` [Compound I-31, 2-((5-chloro-2-((2-(difluoromethoxy)-4-(pyrrolidin-1-yl)phenyl)amino)pyrimidin-4-yl)amino)thiophene-3-carboxamide], the 50% inhibitory concentration (IC50) is over 1 µM at NUAK2 (h), over 1 µM on Aurora A and 0.101 to 1 µM against NUAK1.

Regarding `COc1cc(N2CCN(C)CC2)ccc1Nc1ncc(Cl)c(Nc2ccsc2C(N)=O)n1` [Compound C-1, reference compound], the “AUR-A (IC50, nM)/NUAK2 (IC50, nM)” value on NUAK2 (h) stood at 6. In addition, the IC50 on NUAK2 (h) fell in the range of 0.0001 to 0.01 µM; on Aurora A it was 0.011 to 0.1 µM; at NUAK1 it was 0.0001 to 0.01 µM.

As for `CN1CCC2(CC1)CCN(c1ccc(Nc3ncc(Cl)c(Nc4ccsc4C(N)=O)n3)c(OC(F)F)c1)CC2` [Compound I-54, 3-((5-chloro-2-((2-(difluoromethoxy)-4-(9-methyl-3,9-diazaspiro[5.5]undecan-3-yl)phenyl)amino)pyrimidin-4-yl)amino)thiophene-2-carboxamide], the half-maximal inhibitory concentration (IC50) at NUAK2 (h) fell in the range of 0.011 to 0.1 µM; on Aurora A, 0.101 to 1 µM; against NUAK1 it was 0.011 to 0.1 µM.

For `CN(C)[C@H]1CCN(c2ccc(Nc3ncc(Cl)c(Nc4ccsc4C(N)=O)n3)c(OC(F)F)c2)C1` [Compound I-56, (S)-3-((5-chloro-2-((2-(difluoromethoxy)-4-(3-(dimethylamino)pyrrolidin-1-yl)phenyl)amino)pyrimidin-4-yl)amino)thiophene-2-carboxamide], the IC50 lay within 0.011 to 0.1 µM on NUAK2 (h), 0.101 to 1 µM on Aurora A and 0.0001 to 0.01 µM against NUAK1.

Regarding `COc1cc(N2CCC(N3CCN(C)CC3)CC2)ccc1Nc1ncc(Cl)c(Nc2ccsc2C(N)=O)n1` [Compound C-3, reference compound], on NUAK2 (h), the “AUR-A (IC50, nM)/NUAK2 (IC50, nM)” value is on record as 6. The results for the IC50 on NUAK2 (h), on Aurora A and against NUAK1 were 0.011 to 0.1 µM, 0.101 to 1 µM and 0.011 to 0.1 µM, respectively.
